Data taken from US20240009202A1, “MITOCHONDRIA-TARGETED ANTIOXIDANT AS AGENT FOR TREATING PATHOLOGIC INFLAMMATION CAUSED BY MABC-R INFECTION” (MITOIMMUNE THERAPEUTICS INC., priority 2020, published 2024).

Columns and labels:
mitochondrial ROS = experiment: MitoSOX Red staining of mitochondrial ROS in Mabc-R-infected BMDMs; type: cell-based, mouse; conditions: WT BMDMs, Mabc-R MOI=5, 2 hours, 20 μM, MitoSOX Red (FIG. 5A)
Protocol: (§1) Scale bar, 50 μm. (B to E) WT mice (n=5 each group) were left uninfected or infected intranasally with Mabc-R (1×10^7 CFU), prior to treatment with or without the compound represented by Chemical Formula 1 (30 mg/kg) and monitored at 10 days post-infection. […] The ratio of damaged mitochondria among total mitochondria was calculated quantitatively (scale bars, 200 nm). […] (*P<0.05, **P<0.01, ***P<0.001, n.s., not significant. One-way ANOVA (right) or non-parametric test (B, C, D right and E)). (Data represents three independent experiments (A left and D), and values represent means (±SEM) from three or four independent experiments performed in triplicate (A right, B, C, and E))
Mitochondrial ROS were measured as described previously in Reference. […] After 20 minutes, the cells were washed and measured using an immunofluorescence assay. […] The mean fluorescence intensity (MFI) level of mitochondrial ROS was calculated for each sample. Each experiment was performed in triplicate, and at least 200 cells per well were counted.
The mitochondrial ROS scavenger MIT-001 (previously, NecroX-7) removes mitochondrial ROS, calcium, and reactive nitrogen species (References [32 and 33]). […] The present inventors next determined whether inhibition of mitochondrial ROS generation enhanced antimicrobial effects in vivo. […]

[1] = test system: inflammatory cytokines/chemokines (Tnf, Il1b, Il6, Cxcl2, Cxcl5); experiment: qRT-PCR analysis for cytokines/chemokines in lung tissues of Mabc-R-infected mice; type: in vivo, mouse; conditions: WT mice, intranasal Mabc-R 1×10^7 CFU, 30 mg/kg, 10 dpi (FIG. 5C)
Protocol: as §1
(§2) RNA extraction and qPCR were performed as described in Reference. Briefly, total RNA from BMDMs or lung tissues was isolated using the TRIzol reagent (Thermo Fisher Scientific). cDNA synthesis was performed using Superscript II reverse transcriptase (Invitrogen, 18064). qPCR was performed using cDNA, primers, and SYBR Green PCR Kits (Qiagen, 204074) using a Real-time PCR Cycler Rotor-Gene Q 2plex system (Qiagen GmbH, 9001620, Hilden, Germany). The samples were amplified for 50 cycles as follows: 95° C. for 5 seconds and 60° C. for 10 seconds. To analyze qPCR data, relative quantification was performed using the 2^ΔΔCt method using Gapdh as an internal control gene. Data was expressed as a relative fold change. […]

[2] = test system: mitochondria in alveolar cells of lung tissues; experiment: TEM analysis of damaged mitochondria in lung tissues of Mabc-R-infected mice; type: in vivo, mouse; conditions: Mabc-R-infected mice vs vehicle control mice, 30 mg/kg, 10 dpi, TEM (FIG. 5D)
Protocol: as §1
SIRT3 WT and KO mouse lung tissues were fixed with 2.5% glutaraldehyde in a 0.1 M cacodylate buffer (pH 7.2) containing 0.1% CaCl2). After 3 hours, the cells were post-fixed with 1% OsO4 in a 0.1 M sodium cacodylate buffer containing 0.1% CaCl2) for 2 hours. The tissues were rinsed with cold distilled water and slowly dehydrated using an ethanol series and propylene oxide at 4° C. The tissues were embedded in Embed-812 and cured at 60° C. for 30 hours. Ultrathin sections (70 nm) were cut with a diamond knife and an ULTRACUT UC7 ultramicrotome (Leica) and mounted on formvar-coated copper grids. Sections were stained with 4% uranyl acetate for 7 minutes and lead citrate for 7 minutes. […]

Sirt3 mRNA = experiment: qRT-PCR analysis for Sirt3 mRNA expression in lungs of Mabc-R-infected mice; type: in vivo, mouse; conditions: 30 mg/kg, 10 dpi (FIG. 5E)
Protocol: as §1, §2

Mabc-R = experiment: Pulmonary CFU assay in mice infected intranasally with Mabc-R; type: in vivo, mouse; conditions: WT mice, intranasal Mabc-R 1×10^7 CFU, 30 mg/kg at 1, 3, 5, 7 and 9 dpi, sacrificed at 10 dpi (FIG. 5B)
TNF = TNF secretion in lung tissues of Mabc-R-infected mice (ELISA); type: in vivo, mouse; conditions: Mabc-R-infected mice treated with MIT-001
Protocol: The concentration of TNF in lung tissues was measured using a commercially available ELISA kit (BD Biosciences, 558534, San Jose, CA, USA). Experiments were performed according to the protocol provided by the manufacturer.
We next examined the in vivo effects of MIT-001 on pathological inflammatory responses during Mabc-R infection.

SIRT3 [3] = experiment: qRT-PCR of Tnf, Il6 and Cxcl2 in Mabc-R-infected BMDMs with 3-TYP; type: cell-based, mouse; conditions: 3-TYP 50 μM pretreatment, Mabc-R MOI=3, 3 hours (FIG. 3B)
Protocol: (§3) BMDMs of B and PMs of C were prepared from SIRT3 WT and KO mice, and were infected with Mabc-R (MOI=3) in the presence or absence of 3-TYP (50 μM) for 3 hours. Quantitative real-time PCR analysis for Tnf, Il6, and Cxcl2 was performed. […] (Scale bar, 50 μm. *P<0.05, **P<0.01, ***P<0.001. UI, uninfected. One-way ANOVA (A to D). Data is representative of three independent experiments (D left), and values represent means (±SEM) from three or four independent experiments performed in triplicate (A to C, D right))
(§4) Primary mouse bone marrow-derived macrophages (BMDMs) were isolated and cultured as previously described. BMDMs were isolated and differentiated after culture for 4 to 5 days in medium containing 25 ng/mL macrophage colony-stimulating factor (R&D Systems, Minneapolis, MIN, USA). Peritoneal macrophages (PMs) were isolated 2 to 3 days after injection with 1 mL of PBS supplemented with 3% thioglycollate (Sigma-Aldrich, St. Louis, MO, USA). Prior to isolation, PMs in the mouse abdominal cavity were collected with pre-chilled PBS supplemented with 10% FBS. […]
(§5) RNA extraction and qPCR were performed as described in Reference. […] To analyze qPCR data, relative quantification was performed using the 2^ΔΔCt method using Gapdh as an internal control gene. Data was expressed as a relative fold change. […]

SIRT3 [4] = experiment: qRT-PCR of Tnf, Il6 and Cxcl2 in Mabc-R-infected PMs with 3-TYP; type: cell-based, mouse; conditions: 3-TYP 50 μM pretreatment, Mabc-R MOI=3, 3 hours (FIG. 3C)
Protocol: as §3, §4, §5

For `O=S1(=O)CCN(Cc2cc(NC3CCOCC3)c3[nH]c(-c4ccccc4)cc3c2)CC1` [MIT-001, 5-[(1,1-dioxido-4-thiomorpholinyl)methyl]-2-phenyl-N-(tetrahydro-2H-pyran-4-yl)-1H-indol-7-amine], the “generation of mitochondrial ROS in response to Mabc-R infection” value (mitochondrial ROS) was “remarkably suppressed”, the “mRNA expression of inflammatory cytokines/chemokines including Tnf, Il1b, Il6, Cxcl2 and Cxcl5 in lung tissues” value [1] was “remarkably ameliorated” and the “damaged mitochondria with disrupted cristae in alveolar cells of lung tissues” value [2] was “considerably fewer damaged mitochondria”. For the same compound, the “Sirt3 mRNA levels in mouse lungs” value (Sirt3 mRNA) was “significantly recovered”, the “in vivo bacterial loads in the lungs (pulmonary CFU)” value (Mabc-R) was “significantly inhibited” and the “TNF secretion in lung tissues” value (TNF) was “significantly downregulated”.

`c1cncc(-c2cn[nH]n2)c1` [3-TYP] was tested, and the “mRNA expression of proinflammatory cytokines (Tnf, Il6, Cxcl2) after infection with Mabc-R” value (SIRT3 [3]; SIRT3 KO BMDMs) was “no significant effect”, the “mRNA expression of Tnf, Il6, and Cxcl2 in response to Mabc-R” value (SIRT3 [3]; SIRT3 WT BMDMs) was “significantly increased” and the “mRNA expression of proinflammatory cytokines (Tnf, Il6, Cxcl2) after infection with Mabc-R” value (SIRT3 [4]; SIRT3 KO PMs) was “no significant effect”. The “mRNA expression of Tnf, Il6, and Cxcl2 in response to Mabc-R” value (SIRT3 [4]; SIRT3 WT PMs) was “significantly increased”.
